The values below come from patent publication US6867185B2 (Bristol-Myers Squibb Company, priority 2001, dated 2005).

Read-outs that look alike come from different tables or passages of the source.

For data set [1] the following is noted: rcm bond, 1,2-DCE.
For data set [2] the following is noted: rcm bond, 1,2-dichloroethane.
The test system of data set [3] is HCV replicon in Huh7 cells. Briefly: HCV replicon cell-based assay (replicon FRET assay). Set-up: species or system HCV strain 1B. The note with it: Hepatitis C virus, Huh-7, HCV replicon cell assay; EC50 ranges. The gist of the method: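 Huh7 cells carrying a genotype 1b subgenomic replicon (neo, NS3–NS5B) were treated with compound for 4 days at 37 °C in 0.5% DMSO final. Lysates with 10 μM RET S1 FRET peptide and 150 mM NaCl were read kinetically at 340/490 nm over 21 cycles. EC50 was derived as for the enzyme IC50.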
In general terms: A replicon is a self-replicating genome or part of one, used to study replication in cells.

Data set [4] addresses T1, HCV NS3/4A protease complex, BMS strain (genotype 1a) (Hepatitis C virus genotype 1a, UniProt P27958, C1454S/C1711G).
T1 construct: recombinant HCV NS3/4A protease complex (amino'acids 1027 to 1711); inferred from the pET21b vector and Ni-NTA purification; made in house; host or cells: Escherichia coli BL21 (DE3), pET21b
In words: Recombinant HCV NS3/4A protease complex FRET peptide assay (BMS strain). In kind it is biochemical. The settings on record: IC50, HCV NS3/4A protease FRET assay in vitro; IC50 ranges. The gist of the method: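 Enzyme was NS3/4A complex (aa 1027-1711) from genotype 1a BMS strain, carrying C1454S and C1711G mutations plus a three-lysine tail, expressed in E. coli and Ni-NTA/size-exclusion purified to >90% purity.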

[5] abbreviates: from 1-{[1-(2(S)-tert-butoxycarbonylamino-oct-7-enoyl)-4-(7-methoxy-2-phenylquinolin-4(R)-yloxy)-pyrrolidine-2(S)-carbonyl]-1(R)-amino]-2(S)-vinyl-cyclopropanecarboxylic acid ethyl ester, 14-membered ring, Grubbs catalyst (275 + 225 mg).

As a reminder, the EC50 is the concentration at which the effect is half-maximal. A high value points to lower potency in that assay. A word on the IC50: it is the midpoint of a concentration-inhibition curve.

T1 sequence (P27958 1027-1711 C1454S/C1711G, one chain of several): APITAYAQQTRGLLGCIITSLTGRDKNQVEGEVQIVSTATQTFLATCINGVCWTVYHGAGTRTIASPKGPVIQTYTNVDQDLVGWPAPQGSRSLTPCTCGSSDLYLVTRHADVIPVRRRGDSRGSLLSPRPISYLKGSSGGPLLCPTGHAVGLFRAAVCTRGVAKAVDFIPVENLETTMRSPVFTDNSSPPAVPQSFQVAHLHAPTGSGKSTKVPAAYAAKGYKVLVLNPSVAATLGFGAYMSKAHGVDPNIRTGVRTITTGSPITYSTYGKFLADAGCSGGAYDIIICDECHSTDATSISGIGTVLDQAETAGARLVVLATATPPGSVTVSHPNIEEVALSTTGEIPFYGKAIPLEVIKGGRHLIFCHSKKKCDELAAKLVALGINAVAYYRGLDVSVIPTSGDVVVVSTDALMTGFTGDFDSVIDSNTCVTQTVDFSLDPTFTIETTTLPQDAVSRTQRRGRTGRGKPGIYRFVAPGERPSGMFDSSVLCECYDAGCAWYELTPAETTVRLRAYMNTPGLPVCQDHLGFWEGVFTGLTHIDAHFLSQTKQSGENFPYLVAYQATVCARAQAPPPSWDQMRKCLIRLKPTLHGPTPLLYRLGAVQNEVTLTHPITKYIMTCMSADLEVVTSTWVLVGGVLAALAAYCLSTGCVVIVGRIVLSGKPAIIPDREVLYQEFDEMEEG

Regarding `CCOC(=O)[C@@]12CC1/C=C/CCCC[C@H](C(=O)OC(C)(C)C)C(=O)N1C[C@H](Oc3cc(-c4ccccc4)nc4cc(OC)ccc34)C[C@@]1(N)C(=O)N2` (stereo partly shown), the ring closure, isolated yield in data set [1] (setting [5]) was found to be 8%.
`CCOC(=O)[C@@]12C[C@H]1/C=C/CC[C@H](NC(=O)OC(C)(C)C)C(=O)N1C[C@H](Oc3cc(-c4ccccc4)nc4cc(OC)ccc34)C[C@H]1C(=O)N2` returned a ring closure, isolated yield in data set [1] (from 1-{[1-(2(S)-tert-butoxycarbonylamino-hex-5-enoyl)-4-(7-methoxy-2-phenyl-quinolin-4(R)-yloxy)-pyrroiidine-2(S)-carbonyl]-1(R)-amino}-2(S)-vinyl-cyclopropanecarboxylic acid ethyl ester, 12-membered ring, Grubbs catalyst (2 x 70 mg), 2.02 mM) of 46%.
Regarding `CCOC(=O)[C@@]12C[C@H]1/C=C\CCCCC[C@H](NC(=O)OC(C)(C)C)C(=O)N1C[C@H](Oc3cc(-c4ccccc4)nc4cc(OC)ccc34)C[C@H]1C(=O)N2`, the ring closure, isolated yield in data set [1] (from 1-{[1-(2(S)-tert-butoxycarbonylamino-non-8-enoyl)-4-(7-methoxy-2-phenylquinolin-4(R)-yloxy)-pyrrolidine-2(S)-carbonyl]-1(R)-amino]-2 (5)-vinylcyclopropanecarboxylic acid ethyl ester, 15-membered ring, Grubbs catalyst (3 x 150 mg), 0.83 mM) was determined as 75%.
Turning to `CCOC(=O)[C@@]12C[C@H]1/C=C\CCCC[C@H](NC(=O)OC(C)(C)C)C(=O)N1C[C@H](Oc3cc(-c4ccccc4)nc4cc(OC)ccc34)C[C@H]1C(=O)N2`, the ring closure, isolated yield turned out to be 20% in data set [1] (setting [5]) and 52% in data set [1] (from 1-{[1-(2(S)-tert-butoxycarbonylamino-oct-7-enoyl)-4-(7-methoxy-2-phenylquinolin-4(R)-yloxy)pyrrolidine-2(S)-carbonyl]-1(R)-amino]-2(S)-vinylcyclopropanecarboxylic acid ethyl ester, 14-membered ring, Grubbs catalyst (150 + 140 + 140 mg), 0.77 mM).
In the case of `CCOC(=O)[C@@]12C[C@H]1C=CCCCCC[C@H](NC(=O)OC(C)(C)C)C(=O)N1C[C@H](Oc3cc(-c4ccccc4)nc4cc(OC)ccc34)C[C@H]1C(=O)N2`, the ring closure, yield of all isomers in data set [2] (from C=CCCCCC[C@H](NC(=O)OC(C)(C)C)C(=O)N1C[C@H](Oc2cc(-c3ccccc3)nc3cc(OC)ccc23)C[C@H]1C(=O)N[C@]1(C(=O)OCC)C[C@H]1C=C, Grubbs catalyst, 0.829 mM, 83.0 °C, 15.0 h) turned out to be 75%.
`CCOC(=O)[C@@]12C[C@H]1C=CCCCC[C@H](NC(=O)OC(C)(C)C)C(=O)N1C[C@H](Oc3cc(-c4ccccc4)nc4cc(OC)ccc34)C[C@H]1C(=O)N2`: the ring closure, yield of all isomers amounted to 52% in data set [2] (from C=CCCCC[C@H](NC(=O)OC(C)(C)C)C(=O)N1C[C@H](Oc2cc(-c3ccccc3)nc3cc(OC)ccc23)C[C@H]1C(=O)N[C@]1(C(=O)OCC)C[C@H]1C=C, Grubbs catalyst, 0.772 mM, 83.0 °C, 21.0 h) and 28% in data set [2] (from C=CCCCC[C@H](NC(=O)OC(C)(C)C)C(=O)N1C[C@H](Oc2cc(-c3ccccc3)nc3cc(OC)ccc23)C[C@H]1C(=O)N[C@]1(C(=O)OCC)C[C@H]1C=C, Grubbs catalyst, 2.02 mM, 83.0 °C, 15.0 h).
Turning to `CCOC(=O)[C@@]12C[C@H]1C=CCCCSC[C@@H](NC(=O)OC(C)(C)C)C(=O)N1C[C@H](Oc3cc(-c4ccccc4)nc4cc(OC)ccc34)C[C@H]1C(=O)N2`, the ring closure, yield of all isomers in data set [2] (from C=CCCCSC[C@@H](NC(=O)OC(C)(C)C)C(=O)N1C[C@H](Oc2cc(-c3ccccc3)nc3cc(OC)ccc23)C[C@H]1C(=O)N[C@]1(C(=O)OCC)C[C@H]1C=C, Grubbs II (tricyclohexylphosphine[1,3-bis(2,4,6-trimethylphenyl)-4,5-dihydroimidazol-2-ylidene][benzylidene]ruthenium(IV) dichloride), 3.48 mM, 45.0 °C, 21.0 h) amounted to 42%.
As to `CCOC(=O)[C@@]12C[C@H]1C=CCCC[C@H](NC(=O)OC(C)(C)C)C(=O)N1C[C@H](Oc3cc(-c4ccccc4)nc4cc(OC)ccc34)C[C@H]1C(=O)N2`, the ring closure, yield of all isomers in data set [2] (from C=CCCC[C@H](NC(=O)OC(C)(C)C)C(=O)N1C[C@H](Oc2cc(-c3ccccc3)nc3cc(OC)ccc23)C[C@H]1C(=O)N[C@]1(C(=O)OCC)C[C@H]1C=C, Grubbs catalyst, 2.02 mM, 83.0 °C, 15.0 h) came out at 49%.
`CCOC(=O)[C@@]12C[C@H]1C=CCC[C@H](NC(=O)OC(C)(C)C)C(=O)N1C[C@H](Oc3cc(-c4ccccc4)nc4cc(OC)ccc34)C[C@H]1C(=O)N2` displayed a ring closure, yield of all isomers in data set [2] (from C=CCC[C@H](NC(=O)OC(C)(C)C)C(=O)N1C[C@H](Oc2cc(-c3ccccc3)nc3cc(OC)ccc23)C[C@H]1C(=O)N[C@]1(C(=O)OCC)C[C@H]1C=C, Grubbs catalyst, 2.02 mM, 83.0 °C, 15.0 h) of 46%.
`COc1ccc2c(O[C@@H]3C[C@H]4C(=O)N[C@]5(C(=O)NS(=O)(=O)C6CC6)C[C@H]5C=CCCCCC[C@H](NC(=O)OC(C)(C)C)C(=O)N4C3)ccnc2c1` had a ring closure, yield of all isomers in data set [2] (from C=CCCCCC[C@H](NC(=O)OC(C)(C)C)C(=O)N1C[C@H](Oc2ccnc3cc(OC)ccc23)C[C@H]1C(=O)N[C@]1(C(=O)NS(=O)(=O)C2CC2)C[C@H]1C=C, Grubbs catalyst, 1.02 mM, 83.0 °C, 10.0 h) of 1.9%.
The molecule `COc1ccc2c(O[C@@H]3C[C@H]4C(=O)N[C@]5(C(=O)NS(=O)(=O)C6CC6)CC5/C=C\CCCSC[C@H](NC(=O)OC(C)(C)C)C(=O)N4C3)cc(-c3ccccc3)nc2c1` (stereo partly drawn) [Compound 31, (1S,4R,6S,14S,18R)-7-cis-[4-Cyclopropanesulfonylaminocarbonyl-18-(7-methoxy-2-phenyl-quinolin-4-yloxy)-2,15-dioxo-12-thia-3,16-diazatricyclo[14.3.0.0^4,6]nonadec-7-en-14-yl]-carbamic acid tert-butyl ester] gave an EC50 in data set [3] below 50 nM. Also, the IC50 in data set [4] was below 50 nM.
`COc1ccc2c(O[C@@H]3C[C@H]4C(=O)N[C@]5(C(=O)NS(=O)(=O)C6CC6)CC5/C=C\CCCS(=O)(=O)C[C@H](NC(=O)OC(C)(C)C)C(=O)N4C3)cc(-c3ccccc3)nc2c1` (stereo partly drawn) [Compound 32, (1S,4R,6S,14S,18R)-7-cis-[4-Cyclopropanesulfonylaminocarbonyl-18-(7-methoxy-2-phenyl-quinolin-4-yloxy)-2,12,12,15-tetraoxo-12,16-thia-3,16-diazatricyclo[14.3.0.0^4,6]nonadec-7-en-14-yl]carbamic acid tert-butyl ester]: the EC50 in data set [3] was below 50 nM. In addition, in data set [4], the IC50 was below 50 nM.
`CC(C)(C)OC(=O)N[C@H]1CCCCC/C=C\[C@@H]2C[C@@]2(C(=O)NS(=O)(=O)C2CC2)NC(=O)[C@@H]2C[C@@H](Oc3ccnc4c(C(F)(F)F)cccc34)CN2C1=O` [Compound 33, (1S,4R,6S,14S,18R)-7-cis-[4-Cyclopropanesulfonylaminocarbonyl-2,15-dioxo-18-(8-trifluoromethylquinol-in-4-yloxy)-3,16-diazatricyclo[14.3.0.04,6]nonadec-7-en-14-yl]-carbamic acid tert-butyl ester] had an EC50 in data set [3] below 50 nM. Moreover, in data set [4], the IC50 was below 50 nM.
In turn, “(1S,4R,6S,12S,16R)-7-trans-12-tert-butoxycarbonylamino-16-(7-methoxy-2-phenylquinolin-4-yloxy)-2,13-dioxo-3,14-diazatricyclo[12.3.0.0^4,6]hepta-dec-7-ene-4-carboxylic acid ethyl ester” gave a ring closure, isolated yield in data set [1] (13-membered ring, Grubbs catalyst (2 x 75 mg)) of 49%.
